Columns and labels:
[1] = molecular target: Putative P2Y purinoceptor 10 (Mus musculus, UniProt Q8BFU7); test: Agonist activity at mouse LPS2/P2Y10 transfected in HEK293-A cells co-transfected with AP-TGFalpha assessed as AP-TGFalpha release by TGFalpha shedding assay; type: functional, cell-based
[2] = molecular target: Putative P2Y purinoceptor 10 (Mus musculus) (UniProt Q8BFU7); test: Agonist activity at mouse LPS2/P2Y10 transfected in HEK293-A cells co-transfected with AP-TGFalpha assessed as AP-TGFalpha release by TGFalpha shedding assay relative to LysoPS; type: functional, cell-based; conditions: filed as agonist
Putative P2Y purinoceptor 10 (Mus musculus), sequence (Q8BFU7 whole entry): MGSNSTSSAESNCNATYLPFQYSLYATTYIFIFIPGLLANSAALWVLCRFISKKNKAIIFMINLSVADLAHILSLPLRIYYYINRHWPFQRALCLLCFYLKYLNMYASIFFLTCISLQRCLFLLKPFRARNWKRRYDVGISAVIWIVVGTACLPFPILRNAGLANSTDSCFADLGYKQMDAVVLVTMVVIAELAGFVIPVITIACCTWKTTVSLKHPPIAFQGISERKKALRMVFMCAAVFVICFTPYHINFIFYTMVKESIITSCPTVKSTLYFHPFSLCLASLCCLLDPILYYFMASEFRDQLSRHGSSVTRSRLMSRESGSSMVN

[3] = molecular target: Putative P2Y purinoceptor 10 (Homo sapiens, UniProt O00398, V159F); test: Agonist activity at N-terminal FLAG-tagged human LPS2/P2Y10 V159F mutant transfected in HEK293-A cells co-transfected with AP-TGFalpha assessed as AP-TGFalpha release by TGFalpha shedding assay; type: cell-based
Putative P2Y purinoceptor 10 (Homo sapiens, UniProt O00398, V159F), sequence (O00398 whole entry V159F): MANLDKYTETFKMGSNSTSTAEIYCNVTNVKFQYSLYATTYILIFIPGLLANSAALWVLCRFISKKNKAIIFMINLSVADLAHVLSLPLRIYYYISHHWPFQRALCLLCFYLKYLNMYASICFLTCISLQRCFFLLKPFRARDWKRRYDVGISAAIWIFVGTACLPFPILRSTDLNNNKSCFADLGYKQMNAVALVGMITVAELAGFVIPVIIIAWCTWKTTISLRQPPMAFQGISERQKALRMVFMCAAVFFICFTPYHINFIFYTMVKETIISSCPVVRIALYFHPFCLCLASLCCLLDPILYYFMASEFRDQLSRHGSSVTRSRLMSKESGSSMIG

[4] = molecular target: T1, Putative P2Y purinoceptor 10 (Homo sapiens, UniProt O00398); test: Agonist activity at wildtype N-terminal FLAG-tagged human LPS2/P2Y10 transfected in HEK293-A cells co-transfected with AP-TGFalpha assessed as AP-TGFalpha release by TGFalpha shedding assay; type: functional, cell-based
T1 sequence (O00398 whole entry): as the sequence (O00398 whole entry V159F) above, with F159V counted along it

[5] = molecular target: Putative P2Y purinoceptor 10 (Homo sapiens, UniProt O00398, A163F); test: Agonist activity at N-terminal FLAG-tagged human LPS2/P2Y10 A163F mutant transfected in HEK293-A cells co-transfected with AP-TGFalpha assessed as AP-TGFalpha release by TGFalpha shedding assay; type: cell-based
Putative P2Y purinoceptor 10 (Homo sapiens, UniProt O00398, A163F), sequence (O00398 whole entry A163F): as the sequence (O00398 whole entry V159F) above, with F159V, A163F counted along it

[6] = tested on: Putative P2Y purinoceptor 10 (Homo sapiens), O00398 [V159F]; test: Agonist activity at N-terminal FLAG-tagged human LPS2/P2Y10 V159F mutant transfected in HEK293-A cells co-transfected with AP-TGFalpha assessed as AP-TGFalpha release by TGFalpha shedding assay relative to LysoPS; type: cell-based; conditions: filed as agonist
Putative P2Y purinoceptor 10 (Homo sapiens), O00398 [V159F], sequence (O00398 whole entry V159F): as the sequence (O00398 whole entry V159F) above

[7] = molecular target: T1, Putative P2Y purinoceptor 10; test: Agonist activity at wildtype N-terminal FLAG-tagged human LPS2/P2Y10 transfected in HEK293-A cells co-transfected with AP-TGFalpha assessed as AP-TGFalpha release by TGFalpha shedding assay relative to LysoPS; type: functional, cell-based; conditions: filed as agonist
[8] = tested on: Putative P2Y purinoceptor 10 (Homo sapiens), O00398 [A163F]; test: Agonist activity at N-terminal FLAG-tagged human LPS2/P2Y10 A163F mutant transfected in HEK293-A cells co-transfected with AP-TGFalpha assessed as AP-TGFalpha release by TGFalpha shedding assay relative to LysoPS; type: cell-based; conditions: filed as agonist
Putative P2Y purinoceptor 10 (Homo sapiens), O00398 [A163F], sequence (O00398 whole entry A163F): as the sequence (O00398 whole entry V159F) above, with F159V, A163F counted along it

[9] = molecular target: T1, Putative P2Y purinoceptor 10; test: Agonist activity at human LPS2/P2Y10 transfected in HEK293-A cells co-transfected with AP-TGFalpha assessed as AP-TGFalpha release by TGFalpha shedding assay relative to LysopPS; type: functional, cell-based; conditions: filed as agonist
[10] = molecular target: T1, Putative P2Y purinoceptor 10; test: Agonist activity at human LPS2/P2Y10 transfected in HEK293-A cells co-transfected with AP-TGFalpha assessed as AP-TGFalpha release by TGFalpha shedding assay; type: functional, cell-based
[11] = molecular target: Probable G-protein coupled receptor 34 (Mus musculus) (UniProt Q9R1K6); test: Agonist activity at mouse LPS1/GPR34 transfected in HEK293-A cells co-transfected with AP-TGFalpha assessed as AP-TGFalpha release by TGFalpha shedding assay relative to LysoPS; type: functional, cell-based; conditions: filed as agonist
Probable G-protein coupled receptor 34 (Mus musculus), sequence (Q9R1K6 whole entry): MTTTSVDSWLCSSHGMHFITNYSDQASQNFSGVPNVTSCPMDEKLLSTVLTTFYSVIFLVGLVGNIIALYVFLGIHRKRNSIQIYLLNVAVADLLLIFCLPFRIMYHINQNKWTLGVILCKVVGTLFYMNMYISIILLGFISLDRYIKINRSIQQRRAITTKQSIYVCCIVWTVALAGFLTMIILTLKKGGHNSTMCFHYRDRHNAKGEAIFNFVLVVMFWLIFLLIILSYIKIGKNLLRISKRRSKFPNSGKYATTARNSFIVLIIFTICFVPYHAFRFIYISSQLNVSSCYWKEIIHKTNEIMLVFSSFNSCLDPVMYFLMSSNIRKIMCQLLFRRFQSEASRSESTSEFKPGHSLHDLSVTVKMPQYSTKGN

[12] = molecular target: Probable G-protein coupled receptor 34 (Mus musculus, UniProt Q9R1K6); test: Agonist activity at mouse LPS1/GPR34 transfected in HEK293-A cells co-transfected with AP-TGFalpha assessed as AP-TGFalpha release by TGFalpha shedding assay; type: functional, cell-based
Probable G-protein coupled receptor 34, sequence (Q9R1K6 whole entry): as above

Putative P2Y purinoceptor 10 (Mus musculus, UniProt Q8BFU7), sequence (Q8BFU7 whole entry): as the sequence (Q8BFU7 whole entry) above

| Structure (SMILES) | EC50 ([1]; read-out: EC50) | Emax [2] | also measured |
| --- | --- | --- | --- |
| N[C@@H](COP(=O)(O)OCCCOC(=O)CCc1ccccc1Oc1ccc(O)cc1)C(=O)O | > 3 nM | – | EC50 ([1]; read-out: pEC50 (converted)): < 3160 nM |
| Cc1ccccc1Oc1ccccc1CCC(=O)OCCCOP(=O)(O)OC[C@H](N)C(=O)O | 140 nM | 70% | – |
| N[C@@H](COP(=O)(O)OCCCOC(=O)CCc1ccccc1Oc1ccccc1-c1ccccc1)C(=O)O | 890 nM | 105% | EC50 ([10]; read-out: EC50): > 3 nM; EC50 ([10]; read-out: pEC50 (converted)): 5130 nM |
| N[C@@H](COP(=O)(O)OC1CCCO[C@@H]1COC(=O)CCc1ccccc1OCc1cccc(Oc2ccccc2)c1)C(=O)O (stereo not given in full) | – | – | Emax [11]: 117%; EC50 [12]: 180 nM |
| Cc1cccc(Oc2ccccc2CCC(=O)OCCCOP(=O)(O)OC[C@H](N)C(=O)O)c1 | 210 nM | 78% | – |
| CCc1ccc(Oc2ccccc2CCC(=O)OCCCOP(=O)(O)OC[C@H](N)C(=O)O)cc1 | 810 nM | 72% | – |
| N[C@@H](COP(=O)(O)OCCCCOC(=O)CC(=O)Cc1ccccc1Oc1ccc(-c2ccccc2)cc1)C(=O)O | 140 nM | 98% | – |
| N[C@@H](COP(=O)(O)OCCCCCOC(=O)CC(=O)Cc1ccccc1Oc1ccc(-c2ccccc2)cc1)C(=O)O | 240 nM | 105% | – |
| CCc1ccccc1Oc1ccccc1CCC(=O)OCCCOP(=O)(O)OC[C@H](N)C(=O)O | 170 nM | 78% | – |
| N[C@@H](COP(=O)(O)OCCCOC(=O)CCc1ccccc1Oc1ccccc1)C(=O)O | 400 nM | 93% | EC50 [3]: 1500 nM; EC50 [4]: > 3000 nM; EC50 [5]: 1600 nM; Emax [6]: 98%; Emax [8]: 104% |
| Cc1cc(C)cc(Oc2ccccc2CCC(=O)OCCCOP(=O)(O)OC[C@H](N)C(=O)O)c1 | 130 nM | 114% | – |
| N[C@@H](COP(=O)(O)OCCOC(=O)CC(=O)CC(=O)Cc1ccccc1Oc1ccc(-c2ccccc2)cc1)C(=O)O | 200 nM | 112% | – |
| N[C@@H](COP(=O)(O)OCCOC(=O)CC(=O)Cc1ccccc1Oc1ccc(-c2ccccc2)cc1)C(=O)O | > 3 nM | – | EC50 ([1]; read-out: pEC50 (converted)): 6030 nM |
| Cc1ccc(Oc2ccccc2CCC(=O)OCCCOP(=O)(O)OC[C@H](N)C(=O)O)cc1 | 140 nM | 88% | EC50 [3]: 660 nM; EC50 [4]: 810 nM; EC50 [5]: 350 nM; Emax [6]: 117%; Emax [7]: 114%; Emax [8]: 92% |
| N#Cc1ccc(Oc2ccccc2CCC(=O)OCCCOP(=O)(O)OC[C@H](N)C(=O)O)cc1 | > 3 nM | – | EC50 ([1]; read-out: pEC50 (converted)): < 3160 nM |
| CC(C)(C)c1cccc(Oc2ccccc2CCC(=O)OCCCOP(=O)(O)OC[C@H](N)C(=O)O)c1 | 400 nM | 113% | – |
| CC(C)(C)c1cc(Oc2ccccc2CCC(=O)OCCCOP(=O)(O)OC[C@H](N)C(=O)O)cc(C(C)(C)C)c1 | 200 nM | 125% | – |
| Cc1cccc(COc2ccccc2CCC(=O)OCCCOP(=O)(O)OC[C@H](N)C(=O)O)c1 | 340 nM | 114% | – |

Further lines, with some results ahead:

| EC50 ([1]; read-out: EC50) | Emax [2] | Structure (SMILES) | also measured |
| --- | --- | --- | --- |
| 67 nM | 123% | CC(C)(C)c1ccc(Oc2ccccc2CCC(=O)OCCCOP(=O)(O)OC[C@H](N)C(=O)O)cc1 | EC50 [3]: 250 nM; EC50 [4]: 180 nM; EC50 [5]: 470 nM; Emax [6]: 131%; Emax [7]: 119%; Emax [8]: 113% |
| 3.7 nM | 70% | N[C@@H](COP(=O)(O)OCCCOC(=O)CCc1ccccc1Oc1ccc(-c2ccc(-c3ccccc3)cc2)cc1)C(=O)O | Emax [9]: 89%; EC50 ([10]; read-out: EC50): 8 nM |
| 3 nM | 78% | CC(C)(C)c1ccc(-c2ccc(Oc3ccccc3CCC(=O)OCCCOP(=O)(O)OC[C@H](N)C(=O)O)cc2)cc1 | – |
| 18 nM | 92% | CCc1ccccc1-c1ccc(Oc2ccccc2CCC(=O)OCCCOP(=O)(O)OC[C@H](N)C(=O)O)cc1 | – |
| 1.1 nM | 99% | N[C@@H](COP(=O)(O)OCCCOC(=O)CC(=O)Cc1ccccc1Oc1ccc(-c2ccccc2)cc1)C(=O)O | EC50 ([1]; read-out: pEC50 (converted)): 1070 nM |
| 90 nM | 63% | N[C@@H](COP(=O)(O)OCCCOC(=O)CCc1ccccc1OCc1cccc(Oc2ccccc2)c1)C(=O)O | Emax [11]: 124%; EC50 ([1]; read-out: pEC50 (converted)): 93.3 nM; EC50 ([12]; hek293-a): 220 nM |
| 1.5 nM | 94% | CCCCCCCCCCCOc1ccccc1CCC(=O)OCC(F)(F)COP(=O)(O)OC[C@H](N)C(=O)O | – |
| 29 nM | 109% | N[C@@H](COP(=O)(O)OCCCOC(=O)CCc1ccccc1Oc1cccc(-c2ccccc2)c1)C(=O)O | Emax [9]: 133%; EC50 ([10]; read-out: EC50): 62 nM |
| 11 nM | 108% | Cc1ccc(-c2ccc(Oc3ccccc3CCC(=O)OCCCOP(=O)(O)OC[C@H](N)C(=O)O)cc2)cc1 | – |
| 14 nM | 115% | CC(C)(C)c1cccc(-c2ccc(Oc3ccccc3CCC(=O)OCCCOP(=O)(O)OC[C@H](N)C(=O)O)cc2)c1 | – |
| 35 nM | 99% | CC(C)(C)c1ccc(-c2cccc(COc3ccccc3CCC(=O)OCCCOP(=O)(O)OC[C@H](N)C(=O)O)c2)cc1 | Emax [11]: 107%; EC50 [12]: 950 nM |
| 6.7 nM | 87% | N[C@@H](COP(=O)(O)OCCCOC(=O)CCc1ccccc1Oc1ccc(-c2ccccc2-c2ccccc2)cc1)C(=O)O | Emax [9]: 113%; EC50 ([10]; read-out: EC50): 100 nM |
| 1.6 nM | 59% | Nc1ccc(Oc2ccccc2CCC(=O)OCCCOP(=O)(O)OC[C@H](N)C(=O)O)cc1 | EC50 ([1]; read-out: pEC50 (converted)): 1580 nM |
| 23 nM | 121% | N[C@@H](COP(=O)(O)OCCCOC(=O)CCc1ccccc1Oc1cc(-c2ccccc2)cc(-c2ccccc2)c1)C(=O)O | Emax [9]: 152%; EC50 ([10]; read-out: EC50): 120 nM |
| 100 nM | 96% | N[C@@H](COP(=O)(O)OCCCCCOC(=O)CC(=O)CC(=O)Cc1ccccc1Oc1ccc(-c2ccccc2)cc1)C(=O)O | – |
| 7.1 nM | 113% | CCCCCCOc1cccc(COc2ccccc2CCC(=O)OCCCOP(=O)(O)OC[C@H](N)C(N)=O)c1 | EC50 [12]: > 3000 nM |
| 2.6 nM | 98% | CCc1ccc(-c2ccc(Oc3ccccc3CCC(=O)OCCCOP(=O)(O)OC[C@H](N)C(=O)O)cc2)cc1 | – |
| 46 nM | 114% | Cc1cc(C)cc(-c2cccc(COc3ccccc3CCC(=O)OCCCOP(=O)(O)OC[C@H](N)C(=O)O)c2)c1 | EC50 [12]: > 3000 nM |
| 28 nM | 109% | CC(C)(C)c1cc(-c2cccc(COc3ccccc3CCC(=O)OCCCOP(=O)(O)OC[C@H](N)C(=O)O)c2)cc(C(C)(C)C)c1 | EC50 [12]: > 3000 nM |
| 5.3 nM | 68% | N[C@@H](COP(=O)(O)OCCCOC(=O)CCc1ccccc1Oc1ccc(-c2ccc(C34C[C@H]5C[C@@H](C3)C[C@@H](C4)C5)cc2)cc1)C(=O)O | – |
| 31 nM | 118% | N[C@@H](COP(=O)(O)OCCCCOC(=O)CC(=O)CC(=O)Cc1ccccc1Oc1ccc(-c2ccccc2)cc1)C(=O)O | – |
| 24 nM | 112% | CCCCCCCC/C=C\CCCCCCCC(=O)OCCCOP(=O)(O)OC[C@H](N)C(N)=O | EC50 [12]: > 3000 nM |
| 5.7 nM | 131% | N[C@@H](COP(=O)(O)OCCCOC(=O)CCc1ccccc1OCc1cccc(-c2ccccc2)c1)C(=O)O | EC50 [12]: > 3000 nM |
| 2.7 nM | 111% | CCCCCCCCCCCOc1ccccc1CCC(=O)OCCCOP(=O)(O)OC[C@H](N)C(N)=O | Emax [11]: 94%; EC50 [12]: 1600 nM |

Reference: ChEMBL document CHEMBL5360551, “Exploration of LPS2 agonist binding modes using the combination of a new hydrophobic scaffold and homology modeling” (Eur J Med Chem, 2023)
